“And” between values parts separate entries of the source, which are not always exact repeats. Identical values can stand only once.
Tests used:
[1] = tested on: normal human epidermal melanocytes (NHEM); assay: Inhibition of melanin synthesis in L-tyrosine-stimulated human epidermal melanocytes; assay type: cell-based; conditions: 300 μM; stimulation by L-tyrosine (1 mM); 240 hours; n=3
Experimental: Human melanocytes are stimulated by L-tyrosine to induce an increase of the melanin synthesis and be able to measure an inhibition of this synthesis when a whitening agent is added.
Biological model: normal human epidermal melanocytes (NHEM), lightly pigmented, were cultured in medium M254 supplemented with PMA free HMGS-2; Insulin 5 ag/ml; Penicillin 50 U/ml; Streptomycin 50 ag/ml; Gentamycin 25 μg/ml (incubator: 37° C. and 5% CO2).
Culture and treatment: melanocytes were seeded in 24-well plates and cultured in culture medium for 24 hours. The medium was then replaced by culture medium containing the test compounds or not (stimulated control) in presence of the inducer (L-tyrosine at 1 mM). The cells were then incubated for 240 hours with 2 treatment renewals after 72 and 168 hours of incubation. A non-stimulated control was performed in parallel. All experimental conditions were performed in n=3.
Melanin assay: at the end of incubation, the culture supernatants were removed and the melanin was extracted by cell lysis using a 0.5 N NaOH solution. The optical density (OD) of each experimental point was measured at 405 nm and melanin quantity was calculated using melanin standards (standard curve 0.39 to 100 μg/ml melanin). Results were expressed in […] of melanin.

NHEM culture = assay: Determination of the higher non-cytotoxic concentration on NHEM culture; assay type: cell-based, human
Experimental: The compounds have been tested beforehand at different concentrations on the NHEM culture to determine the higher non-cytotoxic concentration to be used to evaluate the potential inhibition of melanin synthesis. The determined concentration was 300 μM for all compounds: 8, 16, 28a.

human tyrosinase = assay: Inhibition of human tyrosinase in-tubo (HumanLike Tyrosinase Assay kit, Feldan); assay type: biochemical; conditions: 1.12 mM
Experimental: The efficacy of compound 8 was evaluated by the inhibition of human tyrosinase in-tubo and compared to the prior art compound deoxyarbutin.
The assay was performed with a ready-to-use kit from Feldan Inc (Canada): the HumanLike Tyrosinase Assay kit (ref A021-a-001Kit).
The protocol was performed as described in the instructions for use of the manufacturer. Briefly, this kit is intended for the determination of human tyrosinase activity in presence of different inhibitors. The kit measures the conversion of L-Tyrosine into a dopachrome complex absorbing at 490 nm. The time course of the assay is 20 minutes, after which the results are analyzed and compared.
The compound 8 and deoxyarbutin have been tested at a final concentration of 1.12 mM. The measured absorbances at 490 nm are reported in the table 1 and plotted in function of time in the FIG. 1.
Moreover for each compound the efficacy as tyrosinase inhibitor was calculated using the following formula: […]

Row | Inhibitor efficacy (%) (human tyrosinase; T = 20 min) | OD at 490 nm (human tyrosinase; time 0 min) | OD at 490 nm (human tyrosinase; time 1 min) | OD at 490 nm (human tyrosinase; time 2 min) | OD at 490 nm (human tyrosinase; time 3 min) | OD at 490 nm (human tyrosinase; time 4 min) | OD at 490 nm (human tyrosinase; time 5 min) | OD at 490 nm (human tyrosinase; time 6 min) | OD at 490 nm (human tyrosinase; time 7 min) | OD at 490 nm (human tyrosinase; time 8 min) | OD at 490 nm (human tyrosinase; time 9 min) | OD at 490 nm (human tyrosinase; time 10 min) | OD at 490 nm (human tyrosinase; time 11 min) | OD at 490 nm (human tyrosinase; time 12 min) | OD at 490 nm (human tyrosinase; time 13 min) | OD at 490 nm (human tyrosinase; time 14 min) | OD at 490 nm (human tyrosinase; time 15 min) | SMILES | Melanin synthesis (μg/ml), single replicates [1] | Melanin synthesis, Mean [1] [µg/mL] | higher non-cytotoxic concentration (NHEM culture) [µM] | other results
1 |  |  |  |  |  |  |  |  |  |  |  |  |  |  |  |  |  | N[C@@H]1CCCC(F)(F)[C@@H]1Oc1ccc(O)cc1 [Compound 28a] | 9.9 µg/mL and 10.5 µg/mL and 10.2 µg/mL | 10.2 | 300 | 
2 |  |  |  |  |  |  |  |  |  |  |  |  |  |  |  |  |  | Oc1ccc(OC2C(O)CCCC2(F)F)cc1 (racemic) [Compound 16] | 7.9 μg/ml and 8.2 μg/ml (2×) | 8.1 | 300 | 
3 | 32.0 | 0.0000 | 0.0080 | 0.0170 | 0.0245 | 0.0345 | 0.0415 | 0.0505 | 0.0610 | 0.0675 | 0.0755 | 0.0845 | 0.0935 | 0.1015 | 0.1090 | 0.1165 | 0.1255 | Oc1ccc(O[C@@H]2[C@H](O)[C@@H](O)CCC2(F)F)cc1 [Compound 8] | 9.2 μg/ml (2×) and 9.4 μg/ml | 9.3 | 300 | times better efficacy than deoxyarbutin on human tyrosinase inhibition (human tyrosinase; T = 20 min): 3.4 times; OD at 490 nm (human tyrosinase; time 16 min): 0.1355; OD at 490 nm (human tyrosinase; time 17 min): 0.1405; OD at 490 nm (human tyrosinase; time 18 min): 0.1495; OD at 490 nm (human tyrosinase; time 19 min): 0.1575; OD at 490 nm (human tyrosinase; time 20 min): 0.1665
4 | 9.4 | 0.0000 | 0.0100 | 0.0195 | 0.0290 | 0.0385 | 0.0480 | 0.0585 | 0.0695 | 0.0800 | 0.0935 | 0.1035 | 0.1155 | 0.1265 | 0.1385 | 0.1500 | 0.1615 | Oc1ccc(OC2CCCCO2)cc1 (stereo not drawn) [Deoxyarbutin, deoxyarbutin, reference compound] |  |  |  | OD at 490 nm (human tyrosinase; time 16 min): 0.1735; OD at 490 nm (human tyrosinase; time 17 min): 0.1846; OD at 490 nm (human tyrosinase; time 18 min): 0.1975; OD at 490 nm (human tyrosinase; time 19 min): 0.2095; OD at 490 nm (human tyrosinase; time 20 min): 0.2220
